Results reported in patent US6964780B1, “Controlled-release pharmaceutical formulations” (Pfizer Inc., priority 1998, dated 2005).
Structures can show the parent of a compound that is named as a salt.

Test: solubility of sildenafil citrate as a function of pH
Assay type: physicochemical
Conditions: at pH values greater than 6
From the text: Matrix formulations according to the present invention may contain a buffering agent. This is particularly useful when the formulation contains sildenafil citrate. A buffering agent of particular interest is aspartic acid. When it forms part of a matrix tablet, aspartic acid acts as a buffering agent to maintain a low pH at the surface of the tablet. […] When present, aspartic acid will typically make up 15–30% by weight of the formulation.

CCCc1nn(C)c2c(=O)[nH]c(-c3cc(S(=O)(=O)N4CCN(C)CC4)ccc3OCC)nc12 [sildenafil citrate, Sildenafil citrate]
solubility: low solubility
